Source: patent US9139577B2, “Sulfoximine substituted quinazolines for pharmaceutical compositions” (Boehringer Ingelheim International GmbH, priority 2013, dated 2015)

Experiments:
[1] = target: MNK1 (Homo sapiens (Human), UniProt Q9BUB5); assay: MNK1 in vitro kinase assay (Assay 3), Z'-LYTE; assay type: biochemical; conditions: for inhibition at 1 µM: compound concentration of 1 μM, read-out: MNK1 % INH
Excerpt: C. MNK1 In vitro Kinase Assay (Assay 3)
MNK1 Data can be obtained from the MNK1 Z′-LYTE® assay. The MNK1 Z′-LYTE® screening protocol and assay conditions are also described on www.invitrogen.com.
The assay is described as follows:
The Z′-LYTE® biochemical assay employs a fluorescence-based, coupled-enzyme format and is based on the differential sensitivity of phosphorylated and non-phosphorylated peptides to proteolytic cleavage. The peptide substrate is labeled with two fluorophores—one at each end—that make up a FRET pair.
In the primary reaction, the kinase transfers the gamma-phosphate of ATP to a single tyrosine, serine or threonine residue in a synthetic FRET-peptide. In the secondary reaction, a site-specific protease recognizes and cleaves non-phosphorylated FRET-peptides. Phosphorylation of FRET-peptides suppresses cleavage by the Development Reagent. Cleavage disrupts FRET between the donor (i.e., coumarin) and acceptor (i.e., fluorescein) fluorophores on the FRET-peptide, whereas uncleaved, phosphorylated FRET-peptides maintain FRET. A ratiometric method, which calculates the ratio (the Emission Ratio) of donor emission to acceptor emission after excitation of the donor fluorophore at 400 nm, is used to quantitate reaction progress, as shown in the equation below.
ASSAY SETUP: The inhibition of kinase activity of MNK1a was assessed using pre-activated GST-MNK1a. The 2×MKNK1 (MNK1) mixture is prepared in 50 mM HEPES pH 7.5, 0.01% BRIJ-35, 10 mM MgCl2, 4 mM MnCl2, 1 mM EGTA, 2 mM DTT.
The Test Compounds are screened in 1% DMSO (final) in the well.
All Peptide/Kinase Mixtures are diluted to a 2× working concentration in the MNK1 Kinase Buffer.
All ATP Solutions are diluted to a 4× working concentration in Kinase Buffer (50 mM HEPES pH 7.5, 0.01% BRIJ-35, 10 mM MgCl2, 1 mM EGTA).
Development Reagent Solution:
The Development Reagent is diluted in Development Buffer
1. 2.5 μL—4× Test Compound
2. 5 μL—2× Peptide/Kinase Mixture
5. 60-minute Kinase Reaction incubation at room temperature
6. 5 μl—Development Reagent Solution
8. 60-minute Development Reaction incubation at room temperature
9. Read on fluorescence plate reader and analyze the data
The following equations are used for each set of data points: […]
Correction for Background Fluorescence: FlSample-FlTCFl Ctl
% Phosphorylation (% Phos): 1−((Emission Ratio×F100%)−C100%)/((C0%−C100%)+[Emission Ratio×(F100%−F0%)])*100%
% Inhibition: 1−(% PhosSample/% Phos0% Inhibition Ctl)*100
Fl=Fluorescence Intensity
C100%=Average Coumarin emission signal of the 100% Phos. Control
C0%=Average Coumarin emission signal of the 0% Phos. Control
F100%=Average Fluorescein emission signal of the 100% Phos. Control
F0%=Average Fluorescein emission signal of the 0% Phos. Control
SelectScreen® Kinase Profiling Service uses XLfit from IDBS.

[2] = target: MNK2a (Homo sapiens (Human), UniProt Q9HBH9); assay: MNK2a in vitro kinase assay (Assay 2), ADP-Glo; assay type: biochemical; conditions: read-out: MNK2 IC50
MNK2a, sequence (Q9HBH9 whole entry): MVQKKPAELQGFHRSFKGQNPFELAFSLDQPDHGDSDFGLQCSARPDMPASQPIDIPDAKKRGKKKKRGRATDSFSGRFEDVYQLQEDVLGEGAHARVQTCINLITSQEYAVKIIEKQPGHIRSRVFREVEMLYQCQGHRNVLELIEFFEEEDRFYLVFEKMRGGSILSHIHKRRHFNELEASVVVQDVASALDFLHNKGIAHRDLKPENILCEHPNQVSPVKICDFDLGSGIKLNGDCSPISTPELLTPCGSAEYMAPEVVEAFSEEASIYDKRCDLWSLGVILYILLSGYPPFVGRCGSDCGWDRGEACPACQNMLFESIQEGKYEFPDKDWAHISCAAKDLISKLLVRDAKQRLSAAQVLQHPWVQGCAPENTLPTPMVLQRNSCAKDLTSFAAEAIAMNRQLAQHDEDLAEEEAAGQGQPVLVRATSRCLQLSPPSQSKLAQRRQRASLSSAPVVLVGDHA

MNK1, sequence (Q9BUB5 other isoform, or with tags, fused parts or gaps): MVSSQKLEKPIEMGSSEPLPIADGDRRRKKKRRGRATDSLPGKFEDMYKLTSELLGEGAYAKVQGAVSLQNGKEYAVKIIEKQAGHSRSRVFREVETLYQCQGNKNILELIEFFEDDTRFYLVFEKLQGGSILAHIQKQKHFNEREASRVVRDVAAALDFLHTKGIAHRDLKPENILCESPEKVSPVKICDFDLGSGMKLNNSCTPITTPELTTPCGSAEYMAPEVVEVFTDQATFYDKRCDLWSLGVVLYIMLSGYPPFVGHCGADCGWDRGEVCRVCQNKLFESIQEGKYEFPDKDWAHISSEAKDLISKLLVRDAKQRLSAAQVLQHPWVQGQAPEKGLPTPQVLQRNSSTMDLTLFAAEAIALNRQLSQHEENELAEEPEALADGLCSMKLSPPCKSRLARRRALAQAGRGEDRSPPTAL

Row | Structure (SMILES) | IC50 [1] [nM] | IC50 [2] [nM] | inhibition at 1 µM [1] [%]
1 | Cc1cc([C@@H](C)Oc2ncccc2Nc2ncnc3cc(N=S(C)(C)=O)cc(Cl)c23)on1 [Example 1.016] | 53 | 1 | 
2 | Cc1cc(N=S2(=O)CCC2)cc2ncnc(Nc3ccc(F)cc3O[C@H](C)C(F)(F)F)c12 [Example 2.006] | 71 | 2 | 
3 | Cc1cc(N=S2(=O)CCCC2)cc2ncnc(Nc3ccc(F)cc3OCc3ccccc3)c12 [Example 2.004] |  | 6 | 75
4 | Cc1cc([C@@H](C)Oc2cc(F)ccc2Nc2ncnc3cc(N=S4(=O)CCCC4)cc(Cl)c23)on1 [Example 2.014] |  | 2 | 99
5 | Cc1cc([C@@H](C)Oc2ncccc2Nc2ncnc3cc(N=S4(=O)CCCC4)cc(C)c23)on1 [Example 2.009] | 49 | 1 | 
6 | Cc1cc([C@@H](C)Oc2cc(F)ccc2Nc2ncnc3cc(N=S(C)(C)=O)cc(Cl)c23)on1 [Example 1.019] | 54 | 1 | 
7 | CCOC(Oc1ncccc1Nc1ncnc2cc(N=S(C)(C)=O)cc(C)c12)C(F)(F)F (stereo not drawn) [Example 1.008] |  | 8 | 63
8 | O=S1(=Nc2cc(C(F)(F)F)c3c(Nc4ccc(F)cc4OC(CF)CF)ncnc3c2)CCCC1 [Example 1.004] |  | 3 | 79
9 | Cc1cc([C@@H](C)Oc2cc(F)ccc2Nc2ncnc3cc(N=S4(=O)CCCC4)cc(C)c23)on1 [Example 2.012] |  | 28 | 102
10 | Cc1cc(N=S(C)(C)=O)cc2ncnc(Nc3cccnc3OC(C)C)c12 [Example 2.017] |  | 2 | 90
11 | Cc1cc([C@@H](C)Oc2cc(F)ccc2Nc2ncnc3cc(N=S(C)(C)=O)cc(C)c23)on1 [Example 2.008] | 25 | 1 | 
12 | Cc1cc(N=S2(=O)CCCC2)cc2ncnc(Nc3ccc(F)cc3OC(C)C(C)(C)O)c12 (stereo not drawn) [Example 2.001] | 228 | 5 | 
13 | Cc1cc(N=S2(=O)CCCC2)cc2ncnc(Nc3cccnc3OCC3CCOC3)c12 (stereo not drawn) [Example 2.005] |  | 1 | 96
14 | CC(CF)Oc1cc(F)ccc1Nc1ncnc2cc(N=S(C)(C)=O)cc(F)c12 (stereo not drawn) [Example 1.006] |  | 5 | 96
15 | O=S1(=Nc2cc(C(F)(F)F)c3c(Nc4ccc(F)cc4OC(CF)CF)ncnc3c2)CCNCC1 [Example 1.009] |  | 26 | 64
16 | O=S1(=Nc2cc(C(F)(F)F)c3c(Nc4ccc(F)cc4OC(CF)CF)ncnc3c2)CCOCC1 [Example 1.021] |  | 1 | 52
17 | Cc1cc(N=S2(=O)CCCC2)cc2ncnc(Nc3ccc(F)cc3O[C@H](C)C(F)(F)F)c12 [Example 2.048] | 40 | 2 | 

Next, values leading:

Row | IC50 [1] [nM] | IC50 [2] [nM] | inhibition at 1 µM [1] [%] | Structure (SMILES)
18 |  | 12 | 92 | COCC(C)NC(=O)[C@@H](C)Oc1cc(F)ccc1Nc1ncnc2cc(N=S(C)(C)=O)cc(C)c12 (stereo partly drawn) [Example 4.021]
19 |  | 8 | 80 | Cc1cc(N=S(C)(C)=O)cc2ncnc(Nc3ccc(F)cc3OC(C)c3ncco3)c12 (stereo not drawn) [Example 3.002]
20 |  | 63 | 49 | Cc1cc(N=S(C)(C)=O)cc2ncnc(Nc3ccc(F)cc3OCC3COCCO3)c12 (stereo not drawn) [Example 3.044]
21 |  | 5 | 82 | Cc1cc(N=S(C)(C)=O)cc2ncnc(Nc3ccc(F)cc3OC[C@@H]3CCC(=O)N3)c12 [Example 3.043]
22 |  | 24 | 48 | Cc1cc(N=S(C)(C)=O)cc2ncnc(Nc3ccc(F)cc3OC(C)CC3CCOCC3)c12 (stereo not drawn) [Example 3.019]
23 |  | 2 | 73 | Cc1cc(N=S(C)(C)=O)cc2ncnc(Nc3ccc(F)cc3OC[C@H]3CNC(=O)O3)c12 [Example 3.003]
24 |  | 34 | 56 | Cc1cc(N=S(C)(C)=O)cc2ncnc(Nc3ccc(F)cc3O[C@H](C)C(=O)N(C)Cc3ccccc3)c12 [Example 4.012]
25 | 27 | 1 | 64 | C[C@@H](Oc1cc(F)ccc1Nc1ncnc2cc(N=S3(=O)CCC3)cc(Cl)c12)C(=O)NCC(F)(F)F [Example 4.138]
26 |  | 5 | 54 | Cc1cc(N=S(C)(C)=O)cc2ncnc(Nc3ccc(F)cc3O[C@H](C)C(=O)N(C)C)c12 [Example 4.002]
27 |  | 3 | 99 | Cc1cc(N=S(C)(C)=O)cc2ncnc(Nc3ccc(F)cc3O[C@H](C)C(=O)N[C@H]3CCOC3)c12 [Example 4.045]
28 |  | 13 | 88 | Cc1cc(N=S(C)(C)=O)cc2ncnc(Nc3ccc(F)cc3O[C@H](C)C(=O)N3CCCCC3)c12 [Example 4.062]
29 |  | 2 | 99 | Cc1cc(N=S(C)(C)=O)cc2ncnc(Nc3ccc(F)cc3O[C@H](C)C(=O)NC3COC3)c12 [Example 4.009]
30 |  | 2 | 86 | Cc1cc(N=S(C)(C)=O)cc2ncnc(Nc3ccc(F)cc3OC(C)c3ccccn3)c12 (stereo not drawn) [Example 3.021]
31 |  | 11 | 88 | Cc1cc(N=S(C)(C)=O)cc2ncnc(Nc3ccc(F)cc3OCC3CCOC3)c12 (stereo not drawn) [Example 3.048]
32 |  | 8 | 88 | Cc1cc(N=S(C)(C)=O)cc2ncnc(Nc3ccc(F)cc3OCC3CCO3)c12 (stereo not drawn) [Example 3.013]
33 |  | 2 | 98 | CCOC(=O)[C@@H](C)Oc1cc(F)ccc1Nc1ncnc2cc(N=S(C)(C)=O)cc(C)c12 [Example 3.022]
34 |  | 16 | 80 | Cc1cc(N=S(C)(C)=O)cc2ncnc(Nc3ccc(F)cc3O[C@H](C)C(=O)N(C)C3CCCC3)c12 [Example 4.053]
35 | 36 | 2 | 99 | Cc1cc(N=S(C)(C)=O)cc2ncnc(Nc3ccc(Cl)cc3O[C@H](C)C(=O)N[C@@H](C)C(F)(F)F)c12 [Example 4.088]
36 |  | 16 | 26 | CCOC(=O)[C@H](C)Oc1cc(F)ccc1Nc1ncnc2cc(N=S(C)(C)=O)cc(C)c12 [Example 3.032]
37 |  | 6 | 92 | Cc1cc(N=S(C)(C)=O)cc2ncnc(Nc3ccc(F)cc3O[C@H](C)C(=O)NC3CCOCC3)c12 [Example 4.019]
38 |  | 27 | 78 | Cc1cc(N=S(C)(C)=O)cc2ncnc(Nc3ccc(F)cc3O[C@H](C)C(=O)N[C@@H]3CCC[C@@H]3O)c12 [Example 4.038]
39 |  | 9 | 90 | Cc1cc(N=S2(=O)CCCC2)cc2ncnc(Nc3ccc(F)cc3O[C@H](C)C(=O)N[C@@H]3CCC[C@@H]3O)c12 [Example 4.075]
40 |  | 2 | 90 | C#CC(C)Oc1cc(F)ccc1Nc1ncnc2cc(N=S(C)(C)=O)cc(C)c12 (stereo not drawn) [Example 3.016]
41 |  | 8 | 82 | Cc1cc(N=S(C)(C)=O)cc2ncnc(Nc3ccc(F)cc3O[C@H](C)C(=O)N(C)C(C)C)c12 [Example 4.064]
42 |  | 4 | 98 | Cc1cc(N=S(C)(C)=O)cc2ncnc(Nc3ccc(F)cc3O[C@H](C)C(=O)NCC(C)O)c12 (stereo partly drawn) [Example 4.020]
43 |  | 3 | 99 | Cc1cc(N=S2(=O)CCCC2)cc2ncnc(Nc3ccc(F)cc3OC(C)C#N)c12 (stereo not drawn) [Example 7.008]
44 |  | 9 | 73 | Cc1cc(N=S2(=O)CCCC2)cc2ncnc(Nc3ccc(F)cc3O[C@H](C)C(=O)N(C)Cc3ccccc3)c12 [Example 4.017]
45 | 66 | 2 |  | Cc1cc(N=S(C)(C)=O)cc2ncnc(Nc3ccc(F)cc3O[C@@H](C)CNC(=O)C(F)(F)F)c12 [Example 5.004]
46 |  | 1 | 100 | CCC(C)NC(=O)[C@@H](C)Oc1cc(F)ccc1Nc1ncnc2cc(N=S3(=O)CCCC3)cc(C)c12 (stereo partly drawn) [Example 4.050]
47 |  | 4 | 86 | CCN(C)C(=O)[C@@H](C)Oc1cc(F)ccc1Nc1ncnc2cc(N=S(C)(C)=O)cc(C)c12 [Example 4.068]
